Source: patent US8952024B2, “Herbicidal pyrimidone derivatives” (E I du Pont de Nemours and Company, priority 2009, dated 2015)

Columns and labels:
Format in all cases: in vivo
[1] = system: pigweed (Amaranthus retroflexus); assay: Test A pre-/postemergence plant response; details: for Pigweed plant response rating: visual injury, 0 to 100 scale (0 no effect, 100 complete control), approx. ten days
Procedure, shortened: (§1)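 Both pre- and postemergence treatments are applied simultaneously, using chemicals formulated in a non-phytotoxic solvent mixture with surfactant. Postemergence plants are 2–10 cm high with one to two leaves. After approximately ten days in a greenhouse, injury is scored visually from 0 (none) to 100 (complete control) relative to untreated plants.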

[2] = system: wheat (Triticum aestivum); assay: Test A pre-/postemergence plant response; details: for Wheat plant response rating: visual injury, 0 to 100 scale (0 no effect, 100 complete control), approx. ten days
Procedure, shortened: as §1

[3] = system: barnyardgrass (Echinochloa crus-galli); assay: Test A pre-/postemergence plant response; details: for Barnyardgrass plant response rating: visual injury, 0 to 100 scale (0 no effect, 100 complete control), approx. ten days
Procedure, shortened: as §1

[4] = system: large crabgrass (Digitaria sanguinalis); assay: Test A pre-/postemergence plant response; details: for Crabgrass, Large plant response rating: visual injury, 0 to 100 scale (0 no effect, 100 complete control), approx. ten days
Procedure, shortened: as §1

[5] = system: morningglory (Ipomoea spp.); assay: Test A pre-/postemergence plant response; details: for Morningglory plant response rating: visual injury, 0 to 100 scale (0 no effect, 100 complete control), approx. ten days
Procedure, shortened: as §1

corn (Zea mays) = assay: Test A pre-/postemergence plant response; details: for Corn plant response rating: visual injury, 0 to 100 scale (0 no effect, 100 complete control), approx. ten days
Procedure, shortened: as §1

[6] = system: velvetleaf (Abutilon theophrasti); assay: Test A pre-/postemergence plant response; details: for Velvetleaf plant response rating: visual injury, 0 to 100 scale (0 no effect, 100 complete control), approx. ten days
Procedure, shortened: as §1

[7] = system: giant foxtail (Setaria faberii); assay: Test A pre-/postemergence plant response; details: for Foxtail, Giant plant response rating: visual injury, 0 to 100 scale (0 no effect, 100 complete control), approx. ten days
Procedure, shortened: as §1

[8] = system: barnyardgrass (Echinochloa crus-galli); assay: Test B flooded paddy test; details: for Plant response rating, Flood, Barnyardgrass: 250 g ai/ha, flooded paddy test, visual rating on 0 to 100 scale (0 no effect, 100 complete control) after 13 to 15 days; for Plant response rating, Barnyardgrass: Flood (flooded paddy test), 13 to 15 days; for Barnyardgrass plant response rating: Flood, 31 g ai/ha, scale 0 to 100 (0 no effect, 100 complete control)
Procedure, shortened: (§2)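 Rice, umbrella sedge, ducksalad and barnyardgrass were grown to the 2-leaf stage, flooded to 3 cm, and compound was applied directly to the paddy water, with that depth kept throughout. After 13 to 15 days in the greenhouse, plants were visually rated against controls on a 0 (no effect) to 100 (complete control) scale.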

rice (Oryza sativa) = assay: Test B flooded paddy test; details: for Plant response rating, Flood, Rice: 250 g ai/ha, flooded paddy test, visual rating on 0 to 100 scale (0 no effect, 100 complete control) after 13 to 15 days; for Plant response rating, Rice: Flood (flooded paddy test), 13 to 15 days; for Rice plant response rating: Flood, 31 g ai/ha, scale 0 to 100 (0 no effect, 100 complete control)
Procedure, shortened: as §2

[9] = system: umbrella sedge (Cyperus difformis); assay: Test B flooded paddy test; details: for Plant response rating, Flood, Sedge, Umbrella: 250 g ai/ha, flooded paddy test, visual rating on 0 to 100 scale (0 no effect, 100 complete control) after 13 to 15 days; for Plant response rating, Sedge, Umbrella: Flood (flooded paddy test), 13 to 15 days; for Sedge, Umbrella plant response rating: Flood, 31 g ai/ha, scale 0 to 100 (0 no effect, 100 complete control)
Procedure, shortened: as §2

[10] = system: ducksalad (Heteranthera limosa); assay: Test B flooded paddy test; details: for Plant response rating, Flood, Ducksalad: 250 g ai/ha, flooded paddy test, visual rating on 0 to 100 scale (0 no effect, 100 complete control) after 13 to 15 days; for Plant response rating, Ducksalad: Flood (flooded paddy test), 13 to 15 days; for Ducksalad plant response rating: Flood, 31 g ai/ha, scale 0 to 100 (0 no effect, 100 complete control)
Procedure, shortened: as §2

[11] = system: winter barley (Hordeum vulgare); assay: Test B postemergence plant response; details: for Plant response rating, Barley: Postemergence
Procedure, shortened: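 Plants grown in peat/vermiculite medium were sprayed postemergence at 2–18 cm height (1- to 4-leaf stage). After 13–15 days in the greenhouse, response was rated visually against untreated controls on a 0–100 scale (0 no effect, 100 complete control).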

[12] = Postemergence, 125 g ai/ha, 0 to 100 scale where 0 is no effect and 100 is complete control
[13] = Preemergence, 125 g ai/ha, 0 to 100 scale, 0 = no effect, 100 = complete control
[14] = Preemergence, 500 g ai/ha, 0 to 100 scale, 0 = no effect, 100 = complete control
[15] = 62 g ai/ha, scale of 0 to 100 where 0 is no effect and 100 is complete control
[16] = 125 g ai/ha, scale 0 to 100, 0 is no effect, 100 is complete control
[17] = 31 g ai/ha, 0 to 100 scale (0 no effect, 100 complete control)
[18] = 125 g ai/ha, scale 0 to 100 (0 no effect, 100 complete control)
[19] = 250 g ai/ha, scale 0 to 100 (0 no effect, 100 complete control), 13 to 15 days

SMILES: CCCn1c(-c2cccc(Cl)c2)ncc(C(=O)C2=C(O)CCCC2=O)c1=O [Compound 190]
- Plant response rating, Pigweed [1, 12]: 100
- Pigweed plant response rating ([1]; Postemergence, 500 g ai/ha): 100
- Plant response rating, Pigweed [1, 13]: 70
- Plant response rating, Pigweed [1, 14]: 100
- Plant response rating, Wheat [2, 12]: 0
- Wheat plant response rating ([2]; Postemergence, 500 g ai/ha): 0
- Plant response rating, Wheat [2, 13]: 0
- Plant response rating, Wheat [2, 14]: 0
- Plant response rating, Barnyardgrass [3, 12]: 90
- Barnyardgrass plant response rating ([3]; Postemergence, 500 g ai/ha): 100
- Plant response rating, Barnyardgrass [3, 13]: 10
- Plant response rating, Barnyardgrass [3, 14]: 100
- Plant response rating, Crabgrass, Large [4, 12]: 90
- Crabgrass, Large plant response rating ([4]; Postemergence, 500 g ai/ha): 90
- Plant response rating, Crabgrass, Large [4, 13]: 60
- Plant response rating, Crabgrass, Large [4, 14]: 90
- Plant response rating, Morningglory [5, 12]: 100
- Morningglory plant response rating ([5]; Postemergence, 500 g ai/ha): 100
- Plant response rating, Morningglory [5, 14]: 70
- Plant response rating, Corn (corn (Zea mays); [12]): 0
- Corn plant response rating (corn (Zea mays); Postemergence, 500 g ai/ha): 0
- Plant response rating, Corn (corn (Zea mays); [13]): 0
- Plant response rating, Corn (corn (Zea mays); [14]): 0
- Plant response rating, Velvetleaf [6, 12]: 100
- Velvetleaf plant response rating ([6]; Postemergence, 500 g ai/ha): 100
- Plant response rating, Velvetleaf [6, 13]: 70
- Plant response rating, Velvetleaf [6, 14]: 100
- Plant response rating, Foxtail, Giant [7, 12]: 80
- Foxtail, Giant plant response rating ([7]; Postemergence, 500 g ai/ha): 90
- Plant response rating, Foxtail, Giant [7, 13]: 60
- Plant response rating, Foxtail, Giant [7, 14]: 90
- Plant response rating, Flood, Barnyardgrass [8]: 30
- Plant response rating, Barnyardgrass [8, 15]: 0
- Plant response rating, Barnyardgrass [8, 16]: 20
- Barnyardgrass plant response rating [8]: 0
- Plant response rating, Flood, Rice (rice (Oryza sativa)): 15
- Plant response rating, Rice (rice (Oryza sativa); [15]): 15
- Plant response rating, Rice (rice (Oryza sativa); [16]): 15
- Rice plant response rating (rice (Oryza sativa)): 15
- Plant response rating, Flood, Sedge, Umbrella [9]: 95
- Plant response rating, Sedge, Umbrella [9, 15]: 0
- Plant response rating, Sedge, Umbrella [9, 16]: 30
- Sedge, Umbrella plant response rating [9]: 0
- Plant response rating, Flood, Ducksalad [10]: 100
- Plant response rating, Ducksalad [10, 15]: 20
- Plant response rating, Ducksalad [10, 16]: 40
- Ducksalad plant response rating [10]: 20
- Barley plant response rating (0 to 100 scale) ([11]; 62 g ai/ha, postemergence, 0 is no effect, 100 is complete control, 13 to 15 days): 5
- Plant response rating, Barley [11, 17]: 0
- Plant response rating, Barley [11, 18]: 40
- Plant response rating, Barley [11, 19]: 70

SMILES: Cc1cc(-n2c(-c3cccc(F)c3)ncc(C(=O)C3=C(O)CCCC3=O)c2=O)ccc1F [Compound 191]
- Plant response rating, Pigweed [1, 12]: 80
- Pigweed plant response rating ([1]; Postemergence, 500 g ai/ha): 90
- Plant response rating, Pigweed [1, 13]: 80
- Plant response rating, Pigweed [1, 14]: 100
- Plant response rating, Wheat [2, 12]: 0
- Wheat plant response rating ([2]; Postemergence, 500 g ai/ha): 50
- Plant response rating, Wheat [2, 13]: 0
- Plant response rating, Wheat [2, 14]: 20
- Plant response rating, Barnyardgrass [3, 12]: 90
- Barnyardgrass plant response rating ([3]; Postemergence, 500 g ai/ha): 100
- Plant response rating, Barnyardgrass [3, 13]: 10
- Plant response rating, Barnyardgrass [3, 14]: 80
- Plant response rating, Crabgrass, Large [4, 12]: 70
- Crabgrass, Large plant response rating ([4]; Postemergence, 500 g ai/ha): 100
- Plant response rating, Crabgrass, Large [4, 13]: 50
- Plant response rating, Crabgrass, Large [4, 14]: 100
- Plant response rating, Morningglory [5, 12]: 90
- Morningglory plant response rating ([5]; Postemergence, 500 g ai/ha): 100
- Plant response rating, Morningglory [5, 13]: 0
- Plant response rating, Morningglory [5, 14]: 70
- Plant response rating, Corn (corn (Zea mays); [12]): 0
- Corn plant response rating (corn (Zea mays); Postemergence, 500 g ai/ha): 50
- Plant response rating, Corn (corn (Zea mays); [13]): 0
- Plant response rating, Corn (corn (Zea mays); [14]): 30
- Plant response rating, Velvetleaf [6, 12]: 100
- Velvetleaf plant response rating ([6]; Postemergence, 500 g ai/ha): 100
- Plant response rating, Velvetleaf [6, 13]: 60
- Plant response rating, Velvetleaf [6, 14]: 100
- Plant response rating, Foxtail, Giant [7, 12]: 80
- Foxtail, Giant plant response rating ([7]; Postemergence, 500 g ai/ha): 100
- Plant response rating, Foxtail, Giant [7, 13]: 40
- Plant response rating, Foxtail, Giant [7, 14]: 90
- Plant response rating, Flood, Barnyardgrass [8]: 25
- Plant response rating, Barnyardgrass [8, 15]: 0
- Plant response rating, Barnyardgrass [8, 16]: 0
- Barnyardgrass plant response rating [8]: 0
- Plant response rating, Flood, Rice (rice (Oryza sativa)): 0
- Plant response rating, Rice (rice (Oryza sativa); [15]): 0
- Plant response rating, Rice (rice (Oryza sativa); [16]): 0
- Rice plant response rating (rice (Oryza sativa)): 0
- Plant response rating, Flood, Sedge, Umbrella [9]: 85
- Plant response rating, Sedge, Umbrella [9, 15]: 75
- Plant response rating, Sedge, Umbrella [9, 16]: 80
- Sedge, Umbrella plant response rating [9]: 60
- Plant response rating, Flood, Ducksalad [10]: 100
- Plant response rating, Ducksalad [10, 15]: 85
- Plant response rating, Ducksalad [10, 16]: 75
- Ducksalad plant response rating [10]: 65
- Plant response rating, Barley [11, 17]: 5
- Plant response rating, Barley ([11]; 62 g ai/ha, scale 0 to 100 (0 no effect, 100 complete control)): 50
- Plant response rating, Barley [11, 18]: 50
- Plant response rating, Barley [11, 19]: 70
